According to PubChem BioAssay (NCI):
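Here, GI50 denotes the concentration required for 50% inhibition of growth. At the TGI there is no net growth.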

Experiments:
Test in all cases: growth of human tumour cells (NCI), 384-well format
[1] = tested on: IGROV1 ovarian
[2] = tested on: NCI/ADR-RES ovarian
[3] = tested on: SK-OV-3 ovarian
[4] = tested on: U251 glioblastoma
[5] = tested on: RXF 393 renal
[6] = tested on: MDA-MB-231 breast
[7] = tested on: OVCAR-3 ovarian
[8] = tested on: NCI-H322M lung
[9] = tested on: SW-620 colon
[10] = tested on: HOP-92 NSCLC
[11] = tested on: NCI-H522 lung
[12] = tested on: RPMI-8226 leukemia
[13] = tested on: SF-539 CNS
[14] = tested on: MOLT-4 leukemia
[15] = tested on: LOX IMVI melanoma
[16] = tested on: BT-549 breast
[17] = tested on: UACC-257 melanoma
[18] = tested on: SF-295 CNS
[19] = tested on: OVCAR-8 ovarian
[20] = tested on: HL-60(TB) leukemia
[21] = tested on: OVCAR-5 ovarian
[22] = tested on: SK-MEL-28 melanoma
[23] = tested on: NCI-H23 lung
[24] = tested on: SN12C renal
[25] = tested on: MALME-3M melanoma
[26] = tested on: ACHN renal
[27] = tested on: KM12 colon
[28] = tested on: K-562 leukemia
[29] = tested on: DU-145 prostate
[30] = tested on: NCI-H460 NSCLC
[31] = tested on: OVCAR-4 ovarian
[32] = tested on: 786-0 renal
[33] = tested on: SF-268 CNS
[34] = tested on: UO-31 renal
[35] = tested on: COLO 205 colon
[36] = tested on: HOP-62 NSCLC
[37] = tested on: A498 renal
[38] = tested on: SK-MEL-5 melanoma
[39] = tested on: CCRF-CEM leukemia
[40] = tested on: HT29 colon
[41] = tested on: CAKI-1 renal
[42] = tested on: NCI-H226 lung
[43] = tested on: MDA-MB-435 melanoma
[44] = tested on: M14 melanoma
[45] = tested on: MCF7 breast
[46] = tested on: UACC-62 melanoma
[47] = tested on: A549 NSCLC
[48] = tested on: SR leukemia
[49] = tested on: SNB-75 CNS
[50] = tested on: HCC-2998 colon
[51] = tested on: EKVX NSCLC
[52] = tested on: MDA-MB-468 breast
[53] = tested on: T-47D breast
[54] = tested on: TK-10 renal
[55] = tested on: HCT-15 colon
[56] = tested on: SNB-19 CNS
[57] = tested on: HS 578T breast
[58] = tested on: PC-3 prostate

For `O=C(O)CCC1CCC(c2cc(F)ccc2F)(S(=O)(=O)c2ccc(Cl)cc2)CC1` (stereo unspecified), the GI50 [1] was > 100 µM, the TGI [1] was > 100 µM and the GI50 [2] was > 100 µM. For the same molecule, the TGI [2] was > 100 µM, the GI50 [3] was > 100 µM and the TGI [3] was > 100 µM. The GI50 [4] was > 100 µM, the TGI [4] was > 100 µM and the GI50 [5] was > 100 µM. The TGI [5] was > 100 µM, the GI50 [6] was > 100 µM and the TGI [6] was > 100 µM. The GI50 [7] was > 100 µM, the TGI [7] was > 100 µM and the GI50 [8] was > 100 µM. The TGI [8] was > 100 µM, the GI50 [9] was > 100 µM and the TGI [9] was > 100 µM. For the same molecule, the GI50 [10] was > 100 µM, the TGI [10] was > 100 µM and the GI50 [11] was > 100 µM. For the same molecule, the TGI [11] was > 100 µM, the GI50 [12] was > 100 µM and the TGI [12] was > 100 µM. The GI50 [13] was > 100 µM, the TGI [13] was > 100 µM and the GI50 [14] was 65 µM. For the same molecule, the TGI [14] was > 100 µM, the GI50 [15] was > 100 µM and the TGI [15] was > 100 µM. For the same molecule, the GI50 [16] was > 100 µM, the TGI [16] was > 100 µM and the GI50 [17] was > 100 µM. The TGI [17] was > 100 µM, the GI50 [18] was > 100 µM and the TGI [18] was > 100 µM. The GI50 [19] was > 100 µM, the TGI [19] was > 100 µM and the GI50 [20] was > 100 µM. For the same molecule, the TGI [20] was > 100 µM, the GI50 [21] was > 100 µM and the TGI [21] was > 100 µM. The GI50 [22] was > 100 µM, the TGI [22] was > 100 µM and the GI50 [23] was > 100 µM. For the same molecule, the TGI [23] was > 100 µM, the GI50 [24] was > 100 µM and the TGI [24] was > 100 µM. For the same molecule, the GI50 [25] was 62 µM, the TGI [25] was > 100 µM and the GI50 [26] was > 100 µM. For the same molecule, the TGI [26] was > 100 µM, the GI50 [27] was > 100 µM and the TGI [27] was > 100 µM. For the same molecule, the GI50 [28] was > 100 µM, the TGI [28] was > 100 µM and the GI50 [29] was > 100 µM. For the same molecule, the TGI [29] was > 100 µM, the GI50 [30] was > 100 µM and the TGI [30] was > 100 µM. The GI50 [31] was 78.8 µM, the TGI [31] was > 100 µM and the GI50 [32] was > 100 µM. For the same molecule, the TGI [32] was > 100 µM, the GI50 [33] was > 100 µM and the TGI [33] was > 100 µM. For the same molecule, the GI50 [34] was > 100 µM, the TGI [34] was > 100 µM and the GI50 [35] was > 100 µM. The TGI [35] was > 100 µM, the GI50 [36] was > 100 µM and the TGI [36] was > 100 µM. The GI50 [37] was > 100 µM, the TGI [37] was > 100 µM and the GI50 [38] was > 100 µM. The TGI [38] was > 100 µM, the GI50 [39] was 75.8 µM and the TGI [39] was > 100 µM. For the same molecule, the GI50 [40] was > 100 µM, the TGI [40] was > 100 µM and the GI50 [41] was > 100 µM. For the same molecule, the TGI [41] was > 100 µM, the GI50 [42] was > 100 µM and the TGI [42] was > 100 µM. The GI50 [43] was 71.9 µM, the TGI [43] was > 100 µM and the GI50 [44] was > 100 µM. For the same molecule, the TGI [44] was > 100 µM, the GI50 [45] was > 100 µM and the TGI [45] was > 100 µM. For the same molecule, the GI50 [46] was > 100 µM, the TGI [46] was > 100 µM and the GI50 [47] was > 100 µM. For the same molecule, the TGI [47] was > 100 µM, the GI50 [48] was 24.8 µM and the TGI [48] was > 100 µM. The GI50 [49] was > 100 µM, the TGI [49] was > 100 µM and the GI50 [50] was > 100 µM. For the same molecule, the TGI [50] was > 100 µM, the GI50 [51] was > 100 µM and the TGI [51] was > 100 µM. The GI50 [52] was 8.1 µM, the TGI [52] was 80.4 µM and the GI50 [53] was 99.6 µM. The TGI [53] was > 100 µM, the GI50 [54] was > 100 µM and the TGI [54] was > 100 µM. For the same molecule, the GI50 [55] was > 100 µM, the TGI [55] was > 100 µM and the GI50 [56] was > 100 µM. For the same molecule, the TGI [56] was > 100 µM, the GI50 [57] was > 100 µM and the TGI [57] was > 100 µM. For the same molecule, the GI50 [58] was > 100 µM and the TGI [58] was > 100 µM.
